Results from patent US20070128217A1 (priority 2003, published 2007).

Legend:
[1] = system: antibodies in sera from SARS patients (sera 1a, 1b, 2, 6, 37, 62, London, SARS-yellow, SARS-green); type: binding, human; set-up: Binding of serum 6 to linear peptides of protein X1 of SARS-CoV Urbani / Binding of serum 37 to linear peptides of protein X1 of SARS-CoV Urbani / Binding of serum 6 to looped/cyclic peptide (PEPSCAN-ELISA) / Binding of serum 37 to looped/cyclic peptide (PEPSCAN-ELISA) / Binding of serum 37 to looped/cyclic peptides of protein X1 of SARS-CoV Urbani / Binding of serum 6 to linear peptides of protein X2 / Binding of serum 37 to linear peptides of protein X2 / Binding of serum 37 to looped/cyclic peptides of protein X2 of SARS-CoV Urbani / Binding of serum 6 to linear peptides of protein M of SARS-CoV Urbani / Binding of serum 37 to linear peptides of protein M of SARS-CoV Urbani / Binding of serum 6 to looped/cyclic peptides of protein M of SARS-CoV Urbani / Binding of serum 37 to looped/cyclic peptides of protein M of SARS-CoV Urbani / Binding of serum 6 to linear peptides of protein X3 of SARS-CoV Urbani / Binding of serum 37 to linear peptides of protein X3 of SARS-CoV Urbani / Binding of serum 37 to looped/cyclic peptides of protein X3 of SARS-CoV Urbani / Binding of serum 6 to linear peptides of protein X4 of SARS-CoV Urbani / Binding of serum 37 to linear peptides of protein X4 of SARS-CoV Urbani / Binding of serum 37 to looped/cyclic peptides of protein X4 of SARS-CoV Urbani / Binding of serum 6 to linear peptides of protein X5 of SARS-CoV Urbani / Binding of serum 37 to linear peptides of protein X5 of SARS-CoV Urbani / Binding of serum 37 to looped/cyclic peptides of protein X5 of SARS-CoV Urbani / Binding of serum 6 to linear peptides of protein N of SARS-CoV Urbani / Binding of serum 37 to linear peptides of protein N of SARS-CoV Urbani / Binding of serum 6 to linear peptide (PEPSCAN-ELISA) / Binding of serum 1a to looped/cyclic peptides of protein N of SARS-CoV Urbani / Binding of serum 1b to looped/cyclic peptides of protein N of SARS-CoV Urbani / Binding of serum 2 to looped/cyclic peptides of protein N of SARS-CoV Urbani / Binding of serum 6 to looped/cyclic peptides of protein N of SARS-CoV Urbani / Binding of serum 37 to looped/cyclic peptides of protein N of SARS-CoV Urbani / Binding of serum 62 to looped/cyclic peptides of protein N of SARS-CoV Urbani / Binding of serum London to looped/cyclic peptides of protein N of SARS-CoV Urbani / Binding of serum SARS-green to looped/cyclic peptides of protein N of SARS-CoV Urbani: unit not given here
[2] = system: control sera (pooled serum of ten healthy LUMC hospital workers; commercial negative donor pooled serum from the Dutch bloodbank); type: binding, human; set-up: Binding of Control serum LUMC to linear peptides / Binding of Control serum Blood-bank to linear peptides / Binding of Control serum LUMC to looped peptides / Binding of Control Serum Blood-Bank to Looped peptides / Binding of Control serum LUMC to linear peptides of the protein M of SARS-CoV Urbani / Binding of Control serum Blood-bank to linear peptides of the protein M of SARS-CoV Urbani / Binding of Control serum LUMC to looped peptides of the protein M of SARS-CoV Urbani / Binding of Control Serum Blood-Bank to Looped peptides of the protein M of SARS-CoV Urbani: unit not given here
[3] = system: rabbit serum obtained by immunizing a rabbit with the SARS-CoV strain Frankfurt 1; type: binding; set-up: Binding of a rabbit serum to linear peptides / Binding of a rabbit serum to looped peptides / Rabbit serum linear peptides / Rabbit serum looped peptides / Binding of a rabbit serum to linear peptides of protein N of SARS-CoV Urbani (Rabbit serum linear peptides) / Binding of a rabbit serum to looped/cyclic peptides of protein N of SARS-CoV Urbani (Rabbit serum looped peptides): unit not given here

Sequence | Binding of serum 1a to linear peptides of protein X1 of SARS-CoV Urbani [1] | Binding of serum 1a to looped/cyclic peptide (PEPSCAN-ELISA) [1] | Binding of serum 1b to linear peptides of protein X1 of SARS-CoV Urbani [1] | Binding of serum 1b to looped/cyclic peptide (PEPSCAN-ELISA) [1] | Binding of serum 2 to linear peptides of protein X1 of SARS-CoV Urbani [1] | Binding of serum 1a to linear peptides of protein M of SARS-CoV Urbani [1] | Binding of serum 1b to linear peptides of protein M of SARS-CoV Urbani [1] | Binding of serum 2 to linear peptides of protein M of SARS-CoV Urbani [1] | Binding of serum 6 to linear peptides of protein M of SARS-CoV Urbani [1] | Binding of serum 37 to linear peptides of protein M of SARS-CoV Urbani [1] | Binding of serum 62 to linear peptides of protein M of SARS-CoV Urbani [1] | Binding of serum London to linear peptides of protein M of SARS-CoV Urbani [1] | Binding of serum SARS-green to linear peptides of protein M of SARS-CoV Urbani [1] | Binding of serum SARS-yellow to linear peptides of protein M of SARS-CoV Urbani [1] | Binding of Control Serum Blood-Bank to Looped peptides of the protein M of SARS-CoV Urbani [2] | Binding of Control serum Blood-bank to linear peptides of the protein M of SARS-CoV Urbani [2] | Binding of Control serum LUMC to linear peptides of the protein M of SARS-CoV Urbani [2] | Binding of Control serum LUMC to looped peptides of the protein M of SARS-CoV Urbani [2] | Rabbit serum linear peptides [3] | Rabbit serum looped peptides [3] | further results
LLYDANYFVCWHTHN | 0.9 | 0.6 | 0.7 | 0.5 | 0.6 | – | – | – | – | – | – | – | – | – | – | – | – | – | – | – | Binding of serum 2 to looped/cyclic peptide (PEPSCAN-ELISA) [1]: 0.4; Binding of serum 6 to linear peptides of protein X1 of SARS-CoV Urbani [1]: 0.7; Binding of serum 6 to looped/cyclic peptide (PEPSCAN-ELISA) [1]: 0.4; Binding of serum 37 to linear peptides of protein X1 of SARS-CoV Urbani [1]: 0.7; Binding of serum 37 to looped/cyclic peptide (PEPSCAN-ELISA) [1]: 0.6; Binding of serum 62 to linear peptides of protein X1 of SARS-CoV Urbani [1]: 0.8; Binding of serum 62 to looped/cyclic peptide (PEPSCAN-ELISA) [1]: 0.6; Binding of serum London to linear peptides of protein X1 of SARS-CoV Urbani [1]: 0.4; Binding of serum London to looped/cyclic peptide (PEPSCAN-ELISA) [1]: 0.2; Binding of serum SARS-green to linear peptides of protein X1 of SARS-CoV Urbani [1]: 0.4; Binding of serum SARS-green to looped/cyclic peptide (PEPSCAN-ELISA) [1]: 0.3; Binding of serum SARS-yellow to linear peptides of protein X1 of SARS-CoV Urbani [1]: 0.5; Binding of serum SARS-yellow to looped/cyclic peptide (PEPSCAN-ELISA) [1]: 0.4; Binding of Control Serum Blood-Bank to Looped peptides [2]: 0.6; Binding of Control serum Blood-bank to linear peptides [2]: 0.8; Binding of Control serum LUMC to linear peptides [2]: 0.7; Binding of Control serum LUMC to looped peptides [2]: 0.5; Binding of a rabbit serum to linear peptides [3]: 0.1; Binding of a rabbit serum to looped peptides [3]: 0.5
LMESELVIGAVIIRG | – | – | – | – | – | 0.7 | 0.5 | 0.7 | 0.3 | 0.9 | 0.8 | 0.3 | 0.3 | 0.1 | 0.7 | 0.8 | 0.5 | 0.6 | 0.4 | 0.2 | Binding of serum 1a to looped/cyclic peptides of protein M of SARS-CoV Urbani [1]: 0.6; Binding of serum 1b to looped/cyclic peptides of protein M of SARS-CoV Urbani [1]: 0.6; Binding of serum 2 to looped/cyclic peptides of protein M of SARS-CoV Urbani [1]: 0.5; Binding of serum 6 to looped/cyclic peptides of protein M of SARS-CoV Urbani [1]: 0.4; Binding of serum 37 to looped/cyclic peptides of protein M of SARS-CoV Urbani [1]: 0.6; Binding of serum 62 to looped/cyclic peptides of protein M of SARS-CoV Urbani [1]: 0.6; Binding of serum London to looped/cyclic peptides of protein M of SARS-CoV Urbani [1]: 0.2; Binding of serum SARS-green to looped/cyclic peptides of protein M of SARS-CoV Urbani [1]: 0.3; Binding of serum SARS-yellow to looped/cyclic peptides of protein M of SARS-CoV Urbani [1]: 0.5
LMWLSYFVASFRLFA | – | – | – | – | – | 0.6 | 0.4 | 0.4 | 0.3 | 0.3 | 0.4 | 0.3 | 0.5 | 0.1 | 0.6 | 0.5 | 0.4 | 0.6 | 0.0 | 0.3 | Recognition of the peptide by sera of SARS-CoV infected individuals, and form (linear, looped/cyclic) in which it is recognized [1]: recognized in looped/cyclic form
LNKRWQLALYKGFQF | 0.6 | 0.6 | 0.7 | 0.4 | 0.8 | – | – | – | – | – | – | – | – | – | – | – | – | – | – | – | Binding of serum 2 to looped/cyclic peptide (PEPSCAN-ELISA) [1]: 0.5; Binding of serum 6 to linear peptides of protein X1 of SARS-CoV Urbani [1]: 0.8; Binding of serum 6 to looped/cyclic peptide (PEPSCAN-ELISA) [1]: 0.5; Binding of serum 37 to linear peptides of protein X1 of SARS-CoV Urbani [1]: 0.6; Binding of serum 37 to looped/cyclic peptide (PEPSCAN-ELISA) [1]: 0.5; Binding of serum 62 to linear peptides of protein X1 of SARS-CoV Urbani [1]: 0.6; Binding of serum 62 to looped/cyclic peptide (PEPSCAN-ELISA) [1]: 0.6; Binding of serum London to linear peptides of protein X1 of SARS-CoV Urbani [1]: 0.3; Binding of serum London to looped/cyclic peptide (PEPSCAN-ELISA) [1]: 0.3; Binding of serum SARS-green to linear peptides of protein X1 of SARS-CoV Urbani [1]: 0.3; Binding of serum SARS-green to looped/cyclic peptide (PEPSCAN-ELISA) [1]: 0.1; Binding of serum SARS-yellow to linear peptides of protein X1 of SARS-CoV Urbani [1]: 0.3; Binding of serum SARS-yellow to looped/cyclic peptide (PEPSCAN-ELISA) [1]: 0.4; Binding of Control Serum Blood-Bank to Looped peptides [2]: 0.6; Binding of Control serum Blood-bank to linear peptides [2]: 0.8; Binding of Control serum LUMC to linear peptides [2]: 0.6; Binding of Control serum LUMC to looped peptides [2]: 0.6; Recognition of the peptide by the rabbit serum [3]: recognized
LNVPLRGTIVTRPLM | – | – | – | – | – | 0.7 | 0.5 | 0.6 | 0.5 | 0.5 | 0.5 | 0.4 | 0.4 | 0.1 | 0.6 | 0.7 | 0.5 | 0.7 | 0.2 | 0.4 | Recognition of the peptide by sera of SARS-CoV infected individuals, and form (linear, looped/cyclic) in which it is recognized [1]: recognized in looped/cyclic form
LPKEITVATSRTLSY | – | – | – | – | – | 0.7 | 0.5 | 0.6 | 0.4 | 0.4 | 0.5 | 0.3 | 0.4 | 0.2 | 0.6 | 0.8 | 0.7 | 0.6 | 0.2 | 0.2 | Binding of serum 1a to looped/cyclic peptides of protein M of SARS-CoV Urbani [1]: 0.6; Binding of serum 1b to looped/cyclic peptides of protein M of SARS-CoV Urbani [1]: 0.4; Binding of serum 2 to looped/cyclic peptides of protein M of SARS-CoV Urbani [1]: 0.6; Binding of serum 6 to looped/cyclic peptides of protein M of SARS-CoV Urbani [1]: 0.6; Binding of serum 37 to looped/cyclic peptides of protein M of SARS-CoV Urbani [1]: 0.6; Binding of serum 62 to looped/cyclic peptides of protein M of SARS-CoV Urbani [1]: 0.5; Binding of serum London to looped/cyclic peptides of protein M of SARS-CoV Urbani [1]: 0.2; Binding of serum SARS-green to looped/cyclic peptides of protein M of SARS-CoV Urbani [1]: 0.3; Binding of serum SARS-yellow to looped/cyclic peptides of protein M of SARS-CoV Urbani [1]: 0.5
